Experimental data: ChEMBL document CHEMBL1201861, “Genomics of Drug Sensitity in Cancer screening data, Wellcome Trust Sanger Institute”

Key:
Test in all cases: cells
[1] = system: U-118-MG; assay type: functional, cell-based, Homo sapiens; conditions: Homo sapiens, U-118-MG
Description: SANGER: Inhibition of human U-118-MG cell growth in a cell viability assay.

[2] = system: TK-10; assay type: functional, cell-based, Homo sapiens; conditions: Homo sapiens, TK-10;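 note: growth inhibition of TK-10 cells, read out in a cell viability assay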
Description: SANGER: Inhibition of human TK10 cell growth in a cell viability assay.

[3] = system: COLO-684; assay type: functional, cell-based; conditions: Homo sapiens
Description: SANGER: Inhibition of human COLO-684 cell growth in a cell viability assay.

[4] = system: HCC38; assay type: functional, cell-based, Homo sapiens; conditions: Homo sapiens, HCC38;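 note: cell viability assay on the human HCC38 cell line, with IC50 marking the concentration that inhibits cell growth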
Description: SANGER: Inhibition of human HCC38 cell growth in a cell viability assay.

[5] = system: CCRF-CEM; assay type: functional, cell-based; conditions: Homo sapiens;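 note: inhibition of CCRF-CEM cell growth, measured by a cell viability assay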
Description: SANGER: Inhibition of human CCRF-CEM cell growth in a cell viability assay.

[6] = system: KARPAS-45; assay type: functional, cell-based; conditions: Homo sapiens;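 note: inhibition of cell line growth, read out through a viability assay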
Description: SANGER: Inhibition of human KARPAS-45 cell growth in a cell viability assay.

[7] = system: COLO-320-HSR; assay type: functional, cell-based; conditions: Homo sapiens;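 note: growth inhibition of COLO-320-HSR cells, determined with a cell viability assay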
Description: SANGER: Inhibition of human COLO-320-HSR cell growth in a cell viability assay.

[8] = system: MDA-MB-231; assay type: functional, cell-based, Homo sapiens; conditions: Homo sapiens, MDA-MB-231
Description: SANGER: Inhibition of human MDA-MB-231 cell growth in a cell viability assay.

[9] = system: SW1783; assay type: functional, cell-based; conditions: Homo sapiens;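 note: cell growth inhibition measured with a viability assay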
Description: SANGER: Inhibition of human SW1783 cell growth in a cell viability assay.

[10] = system: LS-1034; assay type: functional, cell-based, Homo sapiens; conditions: Homo sapiens, LS-1034
Description: SANGER: Inhibition of human LS-1034 cell growth in a cell viability assay.

[11] = system: KYSE-270; assay type: functional, cell-based, Homo sapiens; conditions: Homo sapiens, KYSE-270;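 note: cell growth inhibition measured with a viability assay in the human KYSE-270 line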
Description: SANGER: Inhibition of human KYSE-270 cell growth in a cell viability assay.

[12] = system: NCI-H1304; assay type: functional, cell-based; conditions: Homo sapiens;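 note: growth inhibition of the cancer cell line, measured in a cell viability assay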
Description: SANGER: Inhibition of human NCI-H1304 cell growth in a cell viability assay.

[13] = system: CAL-85-1; assay type: functional, cell-based; conditions: Homo sapiens;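 note: growth inhibition of human CAL-85-1 cells, read out with a cell viability assay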
Description: SANGER: Inhibition of human CAL-85-1 cell growth in a cell viability assay.

[14] = system: NCI-H292; assay type: functional, cell-based, Homo sapiens; conditions: Homo sapiens, NCI-H292;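 note: growth inhibition of NCI-H292 cells, read out with a cell viability assay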
Description: SANGER: Inhibition of human NCI-H292 cell growth in a cell viability assay.

[15] = system: EW-18; assay type: functional, cell-based; conditions: Homo sapiens;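 note: growth inhibition of EW-18 cells, read out by a cell viability assay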
Description: SANGER: Inhibition of human EW-18 cell growth in a cell viability assay.

[16] = system: SCC-15; assay type: functional, cell-based, Homo sapiens; conditions: Homo sapiens, SCC-15;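 note: growth inhibition of SCC-15 cells, read out with a cell viability assay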
Description: SANGER: Inhibition of human SCC-15 cell growth in a cell viability assay.

[17] = system: NB13; assay type: functional, cell-based, Homo sapiens; conditions: Homo sapiens, NB13;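 note: cell viability readout measuring growth inhibition of human NB13 cells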
Description: SANGER: Inhibition of human NB13 cell growth in a cell viability assay.

[18] = system: T84; assay type: functional, cell-based, Homo sapiens; conditions: Homo sapiens, T84;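 note: growth inhibition measured with a cell viability readout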
Description: SANGER: Inhibition of human T84 cell growth in a cell viability assay.

[19] = system: RPMI-7951; assay type: functional, cell-based, Homo sapiens; conditions: Homo sapiens, RPMI-7951
Description: SANGER: Inhibition of human RPMI-7951 cell growth in a cell viability assay.

[20] = system: NCI-H596; assay type: functional, cell-based, Homo sapiens; conditions: Homo sapiens, NCI-H596;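 note: growth inhibition of NCI-H596 cells, read out with a cell viability assay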
Description: SANGER: Inhibition of human NCI-H596 cell growth in a cell viability assay.

[21] = system: SW626; assay type: functional, cell-based, Homo sapiens; conditions: Homo sapiens, SW626;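 note: growth inhibition of SW626 cells, measured with a cell viability assay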
Description: SANGER: Inhibition of human SW626 cell growth in a cell viability assay.

[22] = system: UO-31; assay type: functional, cell-based; conditions: Homo sapiens;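 note: cell viability assay measuring inhibition of cell growth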
Description: SANGER: Inhibition of human U031 cell growth in a cell viability assay.

[23] = system: NB69; assay type: functional, cell-based, Homo sapiens; conditions: Homo sapiens, NB69;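 note: growth inhibition of NB69 cells, determined by a cell viability assay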
Description: SANGER: Inhibition of human NB69 cell growth in a cell viability assay.

[24] = system: NCI-H1355; assay type: functional, cell-based, Homo sapiens; conditions: Homo sapiens, NCI-H1355;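 note: growth inhibition of human NCI-H1355 cells, read out by a cell viability assay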
Description: SANGER: Inhibition of human NCI-H1355 cell growth in a cell viability assay.

[25] = system: SK-PN-DW; assay type: functional, cell-based; conditions: Homo sapiens;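 note: growth inhibition measured with a viability assay on these cells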
Description: SANGER: Inhibition of human SK-PN-DW cell growth in a cell viability assay.

[26] = system: NUGC-3; assay type: functional, cell-based, Homo sapiens; conditions: Homo sapiens, NUGC-3;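 note: growth inhibition of human NUGC-3 cells, read out with a cell viability assay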
Description: SANGER: Inhibition of human NUGC-3 cell growth in a cell viability assay.

[27] = system: JEG-3; assay type: functional, cell-based, Homo sapiens; conditions: Homo sapiens, JEG-3;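 note: growth inhibition of human JEG-3 cells, read out with a cell viability assay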
Description: SANGER: Inhibition of human JEG-3 cell growth in a cell viability assay.

[28] = system: UMUC3; assay type: functional, cell-based, Homo sapiens; conditions: Homo sapiens, UMUC3;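 note: growth inhibition of human UM-UC-3 cells, read out with a cell viability assay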
Description: SANGER: Inhibition of human UM-UC-3 cell growth in a cell viability assay.

[29] = system: KU812 cell line; assay type: functional, cell-based; conditions: Homo sapiens;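 note: growth inhibition of KU812 cells, read out with a cell viability assay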
Description: SANGER: Inhibition of human KU812 cell growth in a cell viability assay.

[30] = system: HSC-3; assay type: functional, cell-based, Homo sapiens; conditions: Homo sapiens, HSC-3
Description: SANGER: Inhibition of human HSC-3 cell growth in a cell viability assay.

[31] = system: SK-UT-1; assay type: functional, cell-based, Homo sapiens; conditions: Homo sapiens, SK-UT-1;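 note: growth inhibition of SK-UT-1 cells, measured by a cell viability assay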
Description: SANGER: Inhibition of human SK-UT-1 cell growth in a cell viability assay.

[32] = system: ETK-1; assay type: functional, cell-based, Homo sapiens; conditions: Homo sapiens, ETK-1;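 note: growth inhibition of human ETK-1 cells, read out with a cell viability assay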
Description: SANGER: Inhibition of human ETK-1 cell growth in a cell viability assay.

[33] = system: KYSE-140; assay type: functional, cell-based, Homo sapiens; conditions: Homo sapiens, KYSE-140;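 note: cell viability assay measuring growth inhibition in human KYSE-140 cells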
Description: SANGER: Inhibition of human KYSE-140 cell growth in a cell viability assay.

[34] = system: OCI-AML2; assay type: functional, cell-based; conditions: Homo sapiens;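 note: growth inhibition of OCI-AML2 cells, read out with a cell viability assay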
Description: SANGER: Inhibition of human OCI-AML2 cell growth in a cell viability assay.

[35] = system: MEL-HO; assay type: functional, cell-based, Homo sapiens; conditions: Homo sapiens, MEL-HO
Description: SANGER: Inhibition of human MEL-HO cell growth in a cell viability assay.

[36] = system: ALL-PO; assay type: functional, cell-based; conditions: Homo sapiens;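 note: growth inhibition of ALL-PO cells, read out by a cell viability assay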
Description: SANGER: Inhibition of human ALL-PO cell growth in a cell viability assay.

[37] = system: COLO-824; assay type: functional, cell-based, Homo sapiens; conditions: Homo sapiens, COLO-824
Description: SANGER: Inhibition of human COLO-824 cell growth in a cell viability assay.

[38] = system: SK-LU-1; assay type: functional, cell-based, Homo sapiens; conditions: Homo sapiens, SK-LU-1;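 note: cell viability assay measuring growth inhibition of human SK-LU-1 cells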
Description: SANGER: Inhibition of human SK-LU-1 cell growth in a cell viability assay.

[39] = system: EKVX; assay type: functional, cell-based, Homo sapiens; conditions: Homo sapiens, EKVX;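 note: growth inhibition of human EKVX cells, read out with a cell viability assay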
Description: SANGER: Inhibition of human EKVX cell growth in a cell viability assay.

[40] = system: MDA-MB-157; assay type: functional, cell-based, Homo sapiens; conditions: Homo sapiens, MDA-MB-157
Description: SANGER: Inhibition of human MDA-MB-157 cell growth in a cell viability assay.

[41] = system: OMC-1; assay type: functional, cell-based, Homo sapiens; conditions: Homo sapiens, OMC-1;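 note: growth inhibition of the OMC-1 cell line, measured by a cell viability assay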
Description: SANGER: Inhibition of human OMC-1 cell growth in a cell viability assay.

[42] = system: SW948; assay type: functional, cell-based, Homo sapiens; conditions: Homo sapiens, SW948;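 note: growth inhibition of SW948 cells, read out with a cell viability assay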
Description: SANGER: Inhibition of human SW948 cell growth in a cell viability assay.

[43] = system: HCC1187; assay type: functional, cell-based, Homo sapiens; conditions: Homo sapiens, HCC1187;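 note: growth inhibition of HCC1187 cells, read out with a cell viability assay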
Description: SANGER: Inhibition of human HCC1187 cell growth in a cell viability assay.

[44] = system: TE-8; assay type: functional, cell-based, Homo sapiens; conditions: Homo sapiens, TE-8;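 note: growth inhibition of TE-8 cells, measured with a cell viability readout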
Description: SANGER: Inhibition of human TE-8 cell growth in a cell viability assay.

[45] = system: GI-1; assay type: functional, cell-based, Homo sapiens; conditions: Homo sapiens, GI-1;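 note: growth inhibition of human GI-1 cells, measured with a cell viability readout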
Description: SANGER: Inhibition of human GI-1 cell growth in a cell viability assay.

[46] = system: DMS-79; assay type: functional, cell-based; conditions: Homo sapiens;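 note: growth inhibition measured with a cell viability assay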
Description: SANGER: Inhibition of human DMS-79 cell growth in a cell viability assay.

[47] = system: COLO-668; assay type: functional, cell-based, Homo sapiens; conditions: Homo sapiens, COLO-668
Description: SANGER: Inhibition of human COLO-668 cell growth in a cell viability assay.

[48] = system: BB30-HNC; assay type: functional, cell-based, Homo sapiens; conditions: Homo sapiens, BB30-HNC;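 note: growth inhibition of the cultured cell line, read out by a cell viability assay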
Description: SANGER: Inhibition of human BB30-HNC cell growth in a cell viability assay.

[49] = system: SiHa; assay type: functional, cell-based, Homo sapiens; conditions: Homo sapiens, SiHa;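 note: Viability-based readout of growth inhibition in SiHa cells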
Description: SANGER: Inhibition of human SiHa cell growth in a cell viability assay.

[50] = system: RERF-LC-MS; assay type: functional, cell-based, Homo sapiens; conditions: Homo sapiens, RERF-LC-MS;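 note: growth inhibition of human RERF-LC-MS cells, read out by a cell viability assay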
Description: SANGER: Inhibition of human RERF-LC-MS cell growth in a cell viability assay.

[51] = system: ATN-1; assay type: functional, cell-based; conditions: Homo sapiens;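 note: growth inhibition of human ATN-1 cells, read out with a cell viability assay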
Description: SANGER: Inhibition of human ATN-1 cell growth in a cell viability assay.

[52] = system: K5; assay type: functional, cell-based, Homo sapiens; conditions: Homo sapiens, K5
Description: SANGER: Inhibition of human K5 cell growth in a cell viability assay.

COC(=O)CNC(=O)C(=O)OC
IC50 [1]: 784 µM | IC50 [2]: 355 µM | IC50 [3]: 560 µM | IC50 [4]: 1740 µM | IC50 [5]: 37.8 µM | IC50 [6]: 484 µM | IC50 [7]: > 4000 µM | IC50 [8]: 368 µM | IC50 [9]: 156 µM | IC50 [10]: 2570 µM | IC50 [11]: 275 µM | IC50 [12]: 533 µM | IC50 [13]: 108 µM | IC50 [14]: 103 µM | IC50 [15]: 1510 µM | IC50 [16]: 1030 µM | IC50 [17]: 659 µM | IC50 [18]: > 4000 µM | IC50 [19]: 322 µM | IC50 [20]: > 4000 µM | IC50 [21]: 1840 µM | IC50 [22]: 338 µM | IC50 [23]: 213 µM | IC50 [24]: 274 µM | IC50 [25]: 215 µM | IC50 [26]: 1480 µM | IC50 [27]: 908 µM | IC50 [28]: 264 µM | IC50 [29]: 28.5 µM | IC50 [30]: 618 µM | IC50 [31]: 1050 µM | IC50 [32]: 525 µM | IC50 [33]: 1610 µM | IC50 [34]: 501 µM | IC50 [35]: 3610 µM | IC50 [36]: 69.9 µM | IC50 [37]: 2400 µM | IC50 [38]: 66 µM | IC50 [39]: 513 µM | IC50 [40]: 566 µM | IC50 [41]: 249 µM | IC50 [42]: 2620 µM | IC50 [43]: > 4000 µM | IC50 [44]: 2640 µM | IC50 [45]: 146 µM | IC50 [46]: > 4000 µM | IC50 [47]: 93.8 µM | IC50 [48]: 148 µM | IC50 [49]: 1180 µM | IC50 [50]: 1670 µM | IC50 [51]: 601 µM | IC50 [52]: 160 µM

Cc1cnc(-c2cnc(NCCNc3ccc(C#N)cn3)nc2-c2ccc(Cl)cc2Cl)[nH]1 [LADUVIGLUSIB]
IC50 [1]: > 2.56 µM | IC50 [2]: > 2.56 µM | IC50 [3]: > 2.56 µM | IC50 [4]: > 2.56 µM | IC50 [5]: > 2.56 µM | IC50 [6]: > 2.56 µM | IC50 [7]: > 2.56 µM | IC50 [8]: > 2.56 µM | IC50 [9]: > 2.56 µM | IC50 [10]: > 2.56 µM | IC50 [11]: > 2.56 µM | IC50 [12]: > 2.56 µM | IC50 [13]: > 2.56 µM | IC50 [14]: > 2.56 µM | IC50 [15]: > 2.56 µM | IC50 [16]: > 2.56 µM | IC50 [17]: > 2.56 µM | IC50 [18]: > 2.56 µM | IC50 [19]: > 2.56 µM | IC50 [20]: > 2.56 µM | IC50 [21]: > 2.56 µM | IC50 [22]: > 2.56 µM | IC50 [23]: > 2.56 µM | IC50 [24]: > 2.56 µM | IC50 [25]: > 2.56 µM | IC50 [26]: > 2.56 µM | IC50 [27]: > 2.56 µM | IC50 [28]: > 2.56 µM | IC50 [29]: > 2.56 µM | IC50 [30]: > 2.56 µM | IC50 [31]: > 2.56 µM | IC50 [32]: > 2.56 µM | IC50 [33]: > 2.56 µM | IC50 [34]: > 2.56 µM | IC50 [35]: > 2.56 µM | IC50 [36]: > 2.56 µM | IC50 [37]: > 2.56 µM | IC50 [38]: > 2.56 µM | IC50 [39]: > 2.56 µM | IC50 [40]: > 2.56 µM | IC50 [41]: > 2.56 µM | IC50 [42]: > 2.56 µM | IC50 [43]: > 2.56 µM | IC50 [44]: > 2.56 µM | IC50 [45]: > 2.56 µM | IC50 [46]: > 2.56 µM | IC50 [47]: > 2.56 µM | IC50 [48]: > 2.56 µM | IC50 [49]: > 2.56 µM | IC50 [50]: > 2.56 µM | IC50 [51]: > 2.56 µM | IC50 [52]: > 2.56 µM

C=CCc1cccc(/C=N/NC(=O)CN2CCN(Cc3ccccc3)CC2)c1O [PAC-1]
IC50 [1]: > 2.56 µM | IC50 [2]: > 2.56 µM | IC50 [3]: > 2.56 µM | IC50 [4]: > 2.56 µM | IC50 [5]: 0.566 µM | IC50 [6]: > 2.56 µM | IC50 [7]: > 2.56 µM | IC50 [8]: > 2.56 µM | IC50 [9]: > 2.56 µM | IC50 [10]: > 2.56 µM | IC50 [11]: 2.46 µM | IC50 [12]: > 2.56 µM | IC50 [13]: > 2.56 µM | IC50 [14]: > 2.56 µM | IC50 [15]: > 2.56 µM | IC50 [16]: > 2.56 µM | IC50 [17]: > 2.56 µM | IC50 [18]: 1.03 µM | IC50 [19]: > 2.56 µM | IC50 [20]: > 2.56 µM | IC50 [21]: > 2.56 µM | IC50 [22]: 1.51 µM | IC50 [23]: > 2.56 µM | IC50 [24]: > 2.56 µM | IC50 [25]: > 2.56 µM | IC50 [26]: > 2.56 µM | IC50 [27]: > 2.56 µM | IC50 [28]: > 2.56 µM | IC50 [29]: > 2.56 µM | IC50 [30]: > 2.56 µM | IC50 [31]: > 2.56 µM | IC50 [32]: 2.48 µM | IC50 [33]: > 2.56 µM | IC50 [34]: > 2.56 µM | IC50 [35]: 1.77 µM | IC50 [36]: > 2.56 µM | IC50 [37]: > 2.56 µM | IC50 [38]: > 2.56 µM | IC50 [39]: > 2.56 µM | IC50 [40]: > 2.56 µM | IC50 [41]: > 2.56 µM | IC50 [42]: > 2.56 µM | IC50 [43]: > 2.56 µM | IC50 [44]: > 2.56 µM | IC50 [45]: > 2.56 µM | IC50 [46]: > 2.56 µM | IC50 [47]: > 2.56 µM | IC50 [48]: > 2.56 µM | IC50 [49]: > 2.56 µM | IC50 [50]: > 2.56 µM | IC50 [51]: > 2.56 µM | IC50 [52]: > 2.56 µM
